The source of these data is patent US20190169620A1, “Treatment of HER2-Dependent Cancers by SORL1 Inhibition” (TURUN YLIOPISTO, priority 2017, published 2019).

“Also recorded” adds a separate entry of the source.

The subject of assay [1] is 5637 bladder cancer cells. As to the kind of experiment: Colony formation assay of SORLA silenced 5637 treated with CADs. The assay is classed as cell-based. The note with it: drug for 7 days combined with SORLA silencing. On the procedure: Transient SORLA (with two individual siRNAs) or scramble silencing was performed for 5637 bladder cancer cells. After 48 hours of silencing, 20 000 cells per well were plated on colony formation assay on 12-well plate. […] DMSO was used as control. Cells were treated for 7 days and drugs including media was replenished between 3-4 days of culture. After 7 days, cells were stained with 0.2% Crystal Violet in 10% EtOH for 10 min RT. Cells were washed extensively with PBS and dried. Wells were scanned and confluency was measured by using Image J colony area plug-in.

In assay [2] the test system is HER2-amplified breast cancer cells.
Protocol: Transient SORLA (with two individual siRNAs) or scramble silencing was performed for 5637 bladder cancer cells. After 48 hours of silencing, 3000 cells per well were plated on 96-well plate. Cells were treated with increasing concentration of Ebastine and Loratadine for 48 hours. After 48 hours of treatment, WST-8 reagent (Sigma, 96992) was added 10 μl/well and absorbance 450 nm was measured by plate reader after 1-2 h of incubation at 37° C. with 5% CO2. Medium without cells was used as background and the A450 of background was subtracted from the samples. Relative viability was calculated by normalizing the A450 values of drug treated to DMSO treated cells. IC50 values were calculated by GraphPad using nonlinear regression to fit the data to the log(inhibitor) vs. response (variable slope) curve.
A further assay has as its system MDA-MB-361 cells. As to the kind of experiment: Proliferation assay (WST-8), MDA-MB-361. The note with it: MDA-MB-361, lapatinib treated. Format: cell-based. On the procedure:
Cells were plated on 96-well plate (3000 cells/well, 4 replicates per sample) in volume of 100 μl.
Transfection of siRNAs to silence SORLA or HER2 protein expression: Cells were seeded on 6-well plate day before the transfection (300 000-500 000 cells/well). On next day, transfection mix containing siRNA (20-40 nM of targeting SORLA, 40 nM of HER2 targeting siRNA and 20-40 nM scramble siRNA) and RNAiMAX transfection reagent (Manufacturer) in OptiMEM medium was prepared. The mix was allowed to stand for 15 min at room temperature before adding to the cells on 6 well plate. After 48 hours of transfection cells were used for experiments.
Background: Formazan colour is commonly taken as a measure of viable cells.

The subject of the next assay is BT474 cells. The experiment in a line: Cell cycle analysis (propidium iodide, flow cytometry). The note with it: BT474, 0.5 μM lapatinib for 24 hours; stated as the effect SORLA silencing mimics. The assay is classed as cell-based. On the procedure: BT474 transfected with control siRNA and with two individual siRNA against SORLA (#3 and #4) and BT474 treated with DMSO or with 0.5 μM Lapatinib for 24 hours were trypsinized, spun down and suspended in ice cold PBS (1 ml). Cells were fixed with 70% EtOH (ice cold) by adding 3 ml of 70% EtOH in dropwise manner while gently vortexin the cells. Cells were then stored at +4° C. until propidium iodide (PI) staining was performed. PI (Sigma) staining was performed by preparing 25 μg/ml PI solution in PBS with RNAase A (Qiagen). Cells were washed twice with PBS. After that cells were suspended in PI solution and incubated 10 minutes on ice. Samples were protected from light and kept on ice until flow cytometry analysis. Samples were run with LSR II and cell cycle analysis was performed with FlowJo.
A general note: In flow cytometry, cells or beads pass a laser one at a time.

For assay [3], the system named is LAMP1- and CD63 (LAMP3)-positive lysosomes. As to the kind of experiment: Immunofluorescent imaging of lysosome aggregation (LAMP1, CD63). The assay is classed as cell-based. The conditions noted are these: Lapatinib 24 h, 0.5 mM. On the procedure:
(§1) Cells were plated on ibidi 8-well dishes or in some cases in […] ibidi dishes. Cells were fixed with 4% paraformaldehyde (PFA) in phosphate buffer saline (PBS) for 10 min at room temperature. PFA was quenched by incubating with 50 mM NH4Cl for 15 min at room temperature. Cells were blocked and permeabilized with 30% horse serum in PBS +0.3% Triton X-100 15 min at room temperature. Primary antibodies were diluted in 30% horse serum and incubated over night at +4° C. HER2 staining was performed with Herceptin (Roche) or with mouse monoclonal antibody (ThermoScientific; MA5-14057) in dilution of 1:300, LAMP1 antibody (Santa Cruz; SC-20011 (H4A3)) was diluted 1:50, rabbit monoclonal SORLA antibody (CM Petersen Lab, Arhus University) in dilution of 1:300, goat anti-EEA-1 (Santa Cruz; sc-6415) 1:50, goat anti-VPS35 (Abcam; ab10099) 1:300, mouse anti-CD63 (Hybridoma Bank; H5C6) 1:300 and rabbit anti-TGN46 (Abcam; ab50595) 1:300. After primary antibody incubation, cells were washed three times with PBS for 5 min at room temperature and then secondary antibodies were diluted 1:300 in 30% horse serum. […]

For a further assay, the system named is TFEB and LAMP1. As to the kind of experiment: Western blot analysis of TFEB and LAMP1 protein levels. The assay is classed as cell-based. The conditions noted are these: SKBR3, lapatinib treatment (24 h). As for the experimental part: Protein extracts were sonicated (0.5 min ON/0.5 min OFF totally 5 min with full power) and protein levels were measured by Bio-Rad protein quantification kit. Sample buffer was added and samples were boiled for 5 min at 95° C. heat block. Proteins were separated on 4-20% gradient gel (Bio-Rad) and transferred into nitrocellulose membranes (Bio-Rad) by semi-dry turbo blot (Bio-Rad). Membranes were blocked with 5% milk powder in TBST for 1 hour at room temperature. Primary antibodies were diluted in blocking buffer (ThermoScientific) and PBS (1:1 ratio) mix and incubated over night at +4° C. Following primary antibodies were used: HER2 (Thermo Scientific, MA5-14057), SORLA (BD Transduction Lab, 612633), α-tubulin (Hybridoma Bank).
On the technique in general: A western blot detects proteins with antibodies after separation by electrophoresis.

In a further assay the test system is HER2. The experiment in a line: Immunofluorescent imaging of HER2 localization. Format: cell-based. The conditions noted are these: BT474, primaquine 24 h, 0.3 and 0.6 mM. On the procedure: as §1

For `CC(C)(C)c1ccc(C(=O)CCCN2CCC(OC(c3ccccc3)c3ccccc3)CC2)cc1` [Ebastine], the “5637 bladder cancer colony growth” value in assay [1] is reported as “significant synergistic effects”. Besides, in assay [2] (Ebastine 48 hours in combination with SORLA silencing, irrespective of anti-HER2 therapy sensitivity), the cell viability result was “synergistic effect on cell viability; also recorded: significantly decreased cell viability”. Moreover, in assay [2] (Ebastine combined with SORLA silencing), the “cell death in vitro” value was “significantly increased cell death”.
With `CCOC(=O)N1CCC(=C2c3ccc(Cl)cc3CCc3cccnc32)CC1` [Loratadine], the “5637 bladder cancer colony growth” value in assay [1] was “significant synergistic effects”.
For the molecule `CS(=O)(=O)CCNCc1ccc(-c2ccc3ncnc(Nc4ccc(OCc5cccc(F)c5)c(Cl)c4)c3c2)o1` [lapatinib], in the assay on MDA-MB-361 cells, the “proliferation / drug sensitivity” value is “resistant to Lapatinib”. Besides, the cell cycle distribution result in the assay with BT474 cells is “increased accumulation of cells at G1/G0 and decreased number of cells in S phase”. The lysosome aggregation result is reported as “induced lysosome aggregation” in assay [3] (BT474 (sensitive)) and “not in the resistant MDA-MB-361 cells” in assay [3] (MDA-MB-361 (resistant)). Further, the LAMP1 protein levels entry with TFEB and LAMP1 is “similarly increased”.
In the case of `COc1cc(NC(C)CCCN)c2ncccc2c1` (stereo not shown) [primaquine], in the assay on HER2, the HER2 localization entry is recorded as “accumulation of intracellular HER2”.
